Activity calls are given as the source filed them. No rule for the calls is given here.
Tested on: T. cruzi-infected H9C2 cardiomyocytes, high-content imaging
Assay: anti-T. cruzi activity in infected cardiomyocytes – imaging, H9C2 host cardiomyocytes, host toxicity (AID 1159565);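 also: infected cells incubated 72 h after plating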
[1] = measured here: H9C2 host cell toxicity
[2] = measured here: amastigotes per cell

| Structure (SMILES) | IC50 | IC50 [1] [nM] | IC50 [2] [nM] |
| --- | --- | --- | --- |
| CS(=O)(=O)c1cccc(-c2cnc(N)c3c(-c4ccc(CO)cc4)csc23)c1 | 630 nM | > 50000 | 320 |
| CCCCCNC(=O)c1c[nH]c2ccc(S(=O)(=O)N(C)c3ccc(OCC)cc3)cc2c1=O | > 50000 nM (inactive) | > 50000 | > 50000 |
| Cn1ccnc1CN1CCc2[nH]cnc2C1c1ccccc1OCc1ccccc1 (stereo not drawn) | > 50000 nM (inactive) | > 50000 | > 50000 |
| CNc1c(C(N)=O)c(-c2ccc3scnc3c2)nn1CC(F)(F)F | 250 nM | > 50000 | 160 |
| COCc1cc(Nc2ccc(Cl)cc2)nc(-c2ccccn2)n1 | 5000 nM | 1300 | 2500 |
| NCc1ccc2c(Cl)cc(Cl)c(O)c2n1 | 2000 nM | 6300 | 1300 |
| COCCn1c(-c2ccc3c(c2)OCO3)cnc1NCc1ccccc1OC | 20000 nM | 40000 | 7900 |
| COc1ccc(-c2nc3ncccc3o2)cc1NC(=O)c1cccs1 | 2500 nM | > 50000 | 2000 |
| CC(Cn1ccnc1)NC(=O)C1CC1c1cccc(Cl)c1Cl (stereo not drawn) | 250 nM | > 50000 | 200 |
| Cc1cc(Nc2cc(C3CC3)[nH]n2)nc(N2CCC[C@H]2C(N)=O)n1 | 63 nM | 130 | 20 |
| CC(C)c1cc(Nc2cc(Cc3ccccc3)nc(NC3CCC(O)CC3)n2)n[nH]1 (stereo not drawn) | 79 nM | 6.3 | 32 |
| CN(Cc1nnnn1C1CCN(Cc2ccc(-n3ccnc3)cc2)CC1)c1ccc(F)cc1F | 320 nM | > 50000 | 320 |
| COc1cccc(CCNC(=O)C(c2cn[nH]c2)N2CCN(c3ccc(Cl)cc3)CC2)c1 (stereo not drawn) | 20 nM | 40000 | 16 |
| COc1cc(Nc2nccc(Nc3onc(C)c3C)n2)cc(S(=O)(=O)C2CCOCC2)c1 | 25000 nM | 10000 | 13000 |
| CCN(CC)c1ccc(S(=O)(=O)N(CC)CC)c2nonc12 | 50000 nM | > 50000 | 20000 |
| Cc1ccc(S(=O)(=O)Cn2nnnc2C(c2cccnc2)N2CCN(c3ccccc3)CC2)cc1 (stereo not drawn) | 320 nM | > 50000 | 320 |
| CN(Cc1nc2c(C(=O)N3CCN(Cc4ccccc4)CC3)cccc2[nH]1)C1CCCc2cccnc21 (stereo not drawn) | 500 nM | 7900 | 500 |
| Cc1c(Nc2cc(C3CC3)[nH]n2)ccc(C#N)c1Cl | 25000 nM | 10000 | 16000 |
| COc1ccc(-c2cnc(NC(=O)c3cc(-c4ccccn4)n[nH]3)n2C)cc1 | 5000 nM | > 50000 | 4000 |
| c1ccc(Nc2nc(-c3ccccn3)cc(N3CCOCC3)n2)cc1 | > 50000 nM (inactive) | 630 | 25000 |
| c1ccc(-c2nc(NCc3ccco3)c3ccccc3n2)nc1 | 3200 nM | 2000 | 4000 |
| CC(C)n1c(-c2nonc2N)nc2cccc(OCCN3CCCC3)c21 | 16000 nM | 32000 | 25000 |
| COc1ccc2ncc(=O)n(CCN3CC[C@H](NCc4ncc(Cl)c5[nH]ncc45)[C@H](O)C3)c2n1 | 3200 nM | > 50000 | 1600 |
| CS(=O)(=O)c1ccc(Nc2nccc(-c3cnn4ncccc34)n2)cc1 | 25000 nM | 5000 | 1000 |

| Structure (SMILES) | IC50 | IC50 [1] [nM] | IC50 [2] [nM] |
| --- | --- | --- | --- |
| O=c1[nH]c(NCCCNCc2cc(Br)cc(Br)c2)nc2ccsc12 | 630 nM | 25000 | 400 |
| O=C(O)[C@H]1C[C@@H]1c1ccc(-c2ccc(CN(CCc3ccccn3)C(=O)C3CCC3)cc2)cc1 | 32000 nM | > 50000 | 32000 |
| N#Cc1cccc(CNc2ccc(-c3cnn(CC4CC4)c(=O)c3C#N)cc2)c1 | 7900 nM | > 50000 | 5000 |
| CC(Cn1ccnc1)NC(=O)C=Cc1ccc(Cl)cc1 (stereo not drawn) | 1000 nM | > 50000 | 630 |
| C[C@@H](Oc1cc(-n2cnc3cc(N)ccc32)sc1C(N)=O)c1ccccc1Cl | 20000 nM | 1000 | 5000 |
| COc1cnc2ccc(=O)n(CCN3CCC(NC(=O)Cc4ccc(Cl)c(Cl)c4)CC3)c2c1 | 400 nM | 6300 | 160 |
| CC1(C)CCC(=Cc2ccc(Cl)cc2)CC1(O)Cn1ccnc1 (stereo not drawn) | 7.9 nM | 32000 | 5 |
| COc1ccc(C2CC(c3ccccc3Cl)=NN2C(=O)CNC(=O)C2CCC2)cc1 (stereo not drawn) | 1600 nM | > 50000 | 1000 |
| NC(=O)c1ccc(-c2cccc(OCCN3CCN(C4CCCCC4)CC3)c2)cc1 | 1600 nM | > 50000 | 790 |
| O=C(NCC1CCCCC1)c1cnns1 | 3200 nM | > 50000 | 2000 |
| CN(Cc1ccc(C(N)=O)cc1)C(c1ccc(F)cc1)c1cccnc1 (stereo not drawn) | 250 nM | > 50000 | 200 |
| O=C(NCc1ccc(-n2cccc2)cc1)c1nc(Cn2ccc([N+](=O)[O-])n2)no1 | 2500 nM | > 50000 | 1300 |
| Cc1ccc2c(c1)-c1onc(C(=O)N3CCCCC3c3cccnc3)c1CO2 (stereo not drawn) | 130 nM | > 50000 | 130 |
| Cc1nn(-c2nc(N)nc(-c3ccccn3)n2)c(N)c1-c1ccccc1 | 5000 nM | 13000 | 1300 |
| CNC(=O)C1Cc2ccccc2N1C(=O)Cc1ccccc1 (stereo not drawn) | > 50000 nM (inactive) | > 50000 | > 50000 |
| O=[N+]([O-])c1ccc(C2=CC(c3ccccc3)=NCCN2)cc1 | 1000 nM | 32000 | 250 |
| Cn1cncc1CN1CCC2(CC1)COC(Cc1ccccc1)C2 (stereo not drawn) | 500 nM | > 50000 | 320 |
| C[C@@H](Oc1cc(-n2cnc3ccc(CC(O)CO)cc32)sc1C(N)=O)c1ccccc1Cl (stereo partly drawn) | 50000 nM | 130 | 13000 |
| O=C(NNC(=O)c1ccccn1)c1ccc(-c2ccccc2)cc1 | 1600 nM | 2000 | 1300 |
| CC(C)(C)CC(=O)NCc1noc(COc2ccccc2)n1 | 2500 nM | > 50000 | 2500 |
| COc1ccc(C(=O)Nc2cc(C(F)(F)F)ccc2N2CCOCC2)c(OC)c1 | 790 nM | > 50000 | 320 |
| Cc1cc(C)cc(NS(=O)(=O)c2cc(-c3cc(C)[nH]n3)ccc2C)c1 | 1600 nM | 32000 | 1300 |
| O=C(NCc1ccc(Cl)cc1)C1CN(C(=O)c2ccc(F)cc2)CCS1 (stereo not drawn) | 40000 nM | > 50000 | 32000 |
| COc1ccc(S(=O)(=O)NC(C)C)cc1Nc1ncc(-c2cccc(F)c2)cn1 | 400 nM | > 50000 | 320 |

| Structure (SMILES) | IC50 | IC50 [1] [nM] | IC50 [2] [nM] |
| --- | --- | --- | --- |
| Cc1ccccc1OCC(=O)N1CCCN(c2cccnn2)CC1 | 630 nM | > 50000 | 500 |
| CCCn1c(NC(=O)CCn2cc(Br)cn2)nc2ccccc21 | 6300 nM | 25000 | 2500 |
| CNc1cncc(C2CCCN2C(=O)Cc2coc3cc(C)ccc23)n1 (stereo not drawn) | 200 nM | > 50000 | 200 |
| CCC(=O)Nc1ccccc1C(=O)Nc1ccccn1 | > 50000 nM (inactive) | > 50000 | > 50000 |
| NC(=O)c1cc(F)ccc1Nc1nc(NC2CCC(O)CC2)ncc1Br (stereo not drawn) | 2000 nM | 500 | 790 |
| CS(=O)(=O)c1ccc(Nc2nccc(Nc3n[nH]c4ccc(F)cc34)n2)c(F)c1 | 32000 nM | 16000 | 4000 |
| Cc1ccc2ccc(C(Nc3ccccn3)c3cccnc3)c(O)c2n1 (stereo not drawn) | 200 nM | 32000 | 200 |
| O=C(NCC1CCCCC1)c1cc(=O)c2ccccc2o1 | 630 nM | 32000 | 500 |
| O=S1N=C(NCCCN(Cc2ccc(F)cc2)c2ccccn2)C(NCc2ccncc2)=N1 (stereo not drawn) | 50000 nM | > 50000 | 40000 |
| COCCn1cnc2cc(NC(=O)C3CCCCC3)cc(C(=O)N3CCc4sccc4C3)c21 | 32000 nM | > 50000 | 20000 |
| Cc1ccc(C)c(OC2CCN(C(=O)C(C)n3ccnc3)CC2)c1 (stereo not drawn) | 400 nM | > 50000 | 320 |
| Cc1ncsc1CNc1cnc(-c2ccc3c(c2)OCCO3)c(-c2cnn(C)c2)c1 | 40000 nM | > 50000 | 20000 |
| COc1ccc2ncc(F)c(NC(=O)C3(O)CCC(NCc4ccc5c(c4)OCCO5)CC3)c2n1 (stereo not drawn) | 130 nM | 32000 | 160 |
| Cc1cn[nH]c1C1CCCN(Cc2nc3ccccc3n2C)C1 (stereo not drawn) | 20000 nM | > 50000 | 10000 |
| O=C(Nc1nc(-c2ccc(S(=O)(=O)N3CCOCC3)cc2)cs1)c1ccc([N+](=O)[O-])cc1 | 1600 nM | > 50000 | 500 |
| Cc1cc2cc(CNc3ccc4c(c3)OCO4)c(=O)n(CCO)c2cc1C | 250 nM | > 50000 | 200 |
| O=C1NCc2cccc(Nc3nc(NC4CCC(O)CC4)ncc3Br)c21 (stereo not drawn) | 1000 nM | 100 | 400 |
| COc1cccc(NS(=O)(=O)c2ccc3[nH]cc(C(=O)NCCC(C)C)c(=O)c3c2)c1 | 32000 nM | 13000 | 16000 |
| COc1ccc2nccc(NC(=O)C3(OC)CCN(CC(O)c4ccc5c(c4)OCCO5)CC3)c2n1 (stereo not drawn) | 320 nM | 16000 | 130 |
| COc1ccc2ncc(F)c(CCN3CC[C@@H](NC(=O)c4cc5c(s4)CCC5)[C@@H](O)C3)c2n1 | 130 nM | 130 | 50 |
| O=C(Nc1nc(-c2ccccn2)cs1)c1ccc(S(=O)(=O)N2CCCCC2)cc1 | 630 nM | 2500 | 400 |
| CC(C)COC(=O)Nc1ccc(N2CCC(CNS(=O)(=O)c3ccccc3)CC2)c(F)c1 | 7900 nM | > 79000 | 7900 |
| Clc1cc(Br)ccc1OCCCCn1ccnc1 | 250 nM | 25000 | 320 |
